Results as given in US4148795A, “Dithiocarbamate ester bactericides and fungicides” (American Cyanamid Company, priority 1976, dated 1979).
Read-outs that look alike come from different tables or passages of the source.

Assays:
[1] = system: Xanthomonas vesicatoria; format: cell-based; conditions: 100 ppm; subcultures 72 hours at 37° C; note: key: 0: No Effect; 9: Kill of Bacteria; 5: Stasis, but not Kill of all Bacteria
[2] = system: Venturia inaequalis; experiment: Apple scab on field-grown trees; format: in vivo; conditions: 50% wettable powder
Description: Apple Scab (Venturia inaequalis)
(§1) The compound of Example 13 was applied as a foliar spray for ten applications at weekly intervals from May 1 through July 2, and then two more sprays on a two-week schedule ending on July 31.
(§2) The active compound was applied as a 50% wettable powder having the following composition:
50% Active Compound (Example 13 )
(§3) Rates of 50% wettable applied were:
(§4) 2 pounds/100 gallons of water
(§5) 1 pound/100 gallons of water
(§6) Three tree replicates of each rate
(§7) Variety: Red Delicious were used.

[3] = system: Phytophthora infestans; format: in vivo; parameters: scale not given here; conditions: Tomato Late Blight, five days
[4] = system: Stemphylium sarcinaeforme; experiment: Agar dilution plate; format: cell-based; conditions: Ss; 100 ppm, 72 hours at 23° C
Summary of the method: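 Compound incorporated into Sabouraud's dextrose agar at about 100 ppm, inoculated with Stemphylium sarcinaeforme and incubated about 72 hours at 23 °C. Growth scored 0 (no control) or 5 (100% effectiveness), test run in repeat.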

[5] = system: Red Delicious apple trees; experiment: Phytotoxicity on field-grown apple trees; format: in vivo; conditions: 50% wettable powder, 2 and 1 pounds/100 gallons of water
Description: as §1, §2, §3, §4, §5, §6, §7

[6] = system: Stemphylium sarcinaeforme; experiment: Spore germination inhibition; format: cell-based; conditions: Stemphylium sarciniforme
Summary of the method: (§8)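 Test compounds were suspended in water at 100, 10 or 1 ppm and inoculated with spore suspensions from 7-day (A. niger) or 14-day potato-dextrose agar cultures. Vials were tumbled for 24 hours and then examined for inhibition of mycelial growth.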

[7] = system: Monilinia fructicola; experiment: Spore germination inhibition; format: cell-based
Summary of the method: as §8

[8] = system: Aspergillus niger; experiment: Spore germination inhibition; format: cell-based; conditions: 24 hours
Summary of the method: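 Test compound is suspended in water at 100, 10 or 1 ppm. and dispensed into one dram "opticlear" vials. Each vial receives one drop of a spore suspension taken from seven-day Aspergillus niger cultures grown on potato-dextrose agar. Capped vials rotate on a tumbler for 24 hours, then are inspected for inhibition of mycelial growth.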

[9] = system: Staphylococcus aureus; format: cell-based; conditions: 100 ppm; subcultures 72 hours at 37° C; note: key: 0: No Effect; 9: Kill of Bacteria; 5: Stasis, but not Kill of all Bacteria
[10] = system: Aerobacter aerogenes; format: cell-based; conditions: 100 ppm; subcultures 72 hours at 37° C; note: key: 0: No Effect; 9: Kill of Bacteria; 5: Stasis, but not Kill of all Bacteria
[11] = system: Piricularia oryzae; format: in vivo; parameters: scale not given here; conditions: Rice Blast, five days
[12] = system: Collectotrichum lagenarium; experiment: Agar dilution plate; format: cell-based; conditions: Cl; 100 ppm, 72 hours at 23° C
Summary of the method: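 Compounds were incorporated at about 100 ppm in Sabouraud's dextrose agar, inoculated, and incubated about 72 h at 23 °C. Growth was scored 0 (no control) or 5 (100% effectiveness), and the test was repeated twice.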

[13] = system: Venturia inaequalis; conditions: in vivo; note: key: 5: clean, no disease; 4: trace of disease; 3: slight disease; 2: moderate disease; 1: severe disease; 0: like controls
[14] = system: Colletotrichum lagenarium; conditions: in vivo; note: key: 5: clean, no disease; 4: trace of disease; 3: slight disease; 2: moderate disease; 1: severe disease; 0: like controls
[15] = system: Pseudomonas solaracaerum; format: cell-based; conditions: 100 ppm, 72 hours at 23° C; note: key: 0: no control; 5: 100% effectiveness of the test compound against the specified organism
[16] = system: Verticillium albo-atrum; experiment: Agar dilution plate; format: cell-based; conditions: Va; 100 ppm, 72 hours at 23° C
Summary of the method: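 Compounds incorporated at about 100 ppm into Sabouraud's dextrose agar, then inoculated with the fungus and incubated about 72 hours at 23° C. Growth scored as 0 (no control) or 5 (100% effectiveness); test repeated twice.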

[17] = system: Rhizoctonia solani; experiment: Agar dilution plate; format: cell-based; conditions: Rs; 100 ppm, 72 hours at 23° C
Summary of the method: (§9)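 Compounds were mixed into Sabouraud's dextrose agar at about 100 ppm active ingredient, allowed to set, and inoculated with the fungus. Plates were incubated about 72 hours at 23° C and then growth was scored 0 (no control) to 5 (100% effectiveness). Testing was repeated twice.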

[18] = system: Pythium de Baryanum; experiment: Agar dilution plate; format: cell-based; conditions: Pd; 100 ppm, 72 hours at 23° C
Summary of the method: as §9

[19] = system: Monilinia fructicola; experiment: Agar dilution plate; format: cell-based; conditions: Mf; 100 ppm, 72 hours at 23° C
Summary of the method: as §9

[20] = system: Fusarium lycopersici; experiment: Agar dilution plate; format: cell-based; conditions: Fl; 100 ppm, 72 hours at 23° C
Summary of the method: as §9

[21] = system: Aspergillus niger; experiment: Agar dilution plate; format: cell-based; conditions: An; 100 ppm, 72 hours at 23° C
Summary of the method: as §9

[22] = 24 h, read-out: % Inhibition of Spore Germination

`CN(C)C(=S)SC(C[N+](=O)[O-])c1ccccc1` (stereo not drawn) [Example 13, α-(Nitromethyl)benzyl Dimethyldithiocarbamate] was tested, and the “Antibacterial Activity rating” value [1] was 5, the scab on trees ([2]; 1 pound/100 gallons of water, end of season) was “trace of scab” and the scab on trees ([2]; 2 pounds/100 gallons of water, all season) was “free of scab all season long”. It also gave a disease control index ([3]; 150 ppm) of 5, a disease control index ([3]; 300 ppm) of 5 and a disease control index ([3]; 600 ppm) of 5. The disease control index ([3]; 1200 ppm) was 5, the “Agar Dilution Plate rating” value [4] was 5 (100% effectiveness of the test compound against the specified organism) and the phytotoxicity [5] was “No phytotoxicity”. For the same molecule, the inhibition at 100 ppm [6, 22] was 100%, the inhibition at 1 ppm ([6]; 1 ppm, 24 hours) was 100% and the inhibition at 10 ppm ([6]; 10 ppm, 24 hours) was 100%. It also gave an inhibition at 1 ppm ([7]; 1 ppm, 24 hours) of 100%, an inhibition at 10 ppm ([7]; 10 ppm, 24 hours) of 100% and an inhibition at 100 ppm [7, 22] of 100%. It also gave an inhibition at 1 ppm ([8]; 1 ppm) of 100%, an inhibition at 10 ppm ([8]; 10 ppm) of 100% and an inhibition at 100 ppm ([8]; 100 ppm) of 100%. The “Antibacterial Activity rating” value [9] was 5, the “Antibacterial Activity rating” value [10] was 5 and the disease control index ([11]; 150 ppm) was 5. The disease control index ([11]; 300 ppm) was 5, the disease control index ([11]; 600 ppm) was 5 and the disease control index ([11]; 1200 ppm) was 5. For the same molecule, the “Agar Dilution Plate rating” value [12] was 5 (100% effectiveness of the test compound against the specified organism), the disease control index [13] was 5 and the disease control index [14] was 5. The “Agar Dilution Plate rating” value [15] was 0, the “Agar Dilution Plate rating” value [16] was 5 (100% effectiveness of the test compound against the specified organism) and the “Agar Dilution Plate rating” value [17] was 0. The “Agar Dilution Plate rating” value [18] was 5 (100% effectiveness of the test compound against the specified organism), the “Agar Dilution Plate rating” value [19] was 5 (100% effectiveness of the test compound against the specified organism) and the “Agar Dilution Plate rating” value [20] was 5 (100% effectiveness of the test compound against the specified organism). For the same molecule, the “Agar Dilution Plate rating” value [21] was 0.
